Calls of active or inactive are those of the source. No cut-off for these calls is given here.
Columns and labels:
[1] = test system: Liver; assay: Stimulation of mitochondrial respiration in Wistar rat liver […] assessed as oxygen consumption rate at 20 and 25 uM using pyruvate and malate as respiratory substrate after 4 mins; format: functional
[2] = test system: Liver; assay: Induction of mitochondrial swelling in Wistar rat liver […] at 0.1 uM after 20 mins in presence of pyruvate and malate by spectroscopic analysis; format: functional
[3] = test system: Liver; assay: Stimulation of mitochondrial respiration in Wistar rat liver […] assessed as oxygen consumption rate at 0.1 and 10 uM using pyruvate and malate as respiratory substrate after 4 mins; format: functional
[4] = Cytotoxicity against human CRL1790 cells assessed as reduction in cell viability after 48 hrs by sulforhodamine B assay; format: cell-based; conditions: CRL1790 (CCD-841CoN) cells
[5] = test system: HCT-116; assay: Antiproliferative activity against human HCT116 cells after 48 hrs by sulforhodamine B assay; format: functional; conditions: HCT-116, 48 h
[6] = Selectivity index, ratio of GI50 for human CRL1790 cells to GI50 for human HCT116 cells; format: functional
[7] = test system: HCT-116; assay: Induction of mitochondrial membrane potential loss in human HCT116 cells at antiproliferative GI50 after 48 hrs by JC-1 staining based fluorescence assay; format: functional, cell-based
[8] = test system: HCT-116; assay: Induction of mitochondrial superoxide generation in human HCT116 cells at antiproliferative GI50 after 60 mins by mitoSOX red-probe based fluorescence assay; format: functional, cell-based
[9] = test system: HCT-116; assay: Induction of reactive oxygen species generation in human HCT116 cells at antiproliferative GI50 after 60 mins by DCFH-DA probe based assay; format: functional, cell-based
[10] = test system: HCT-116; assay: Induction of glutathione oxidation in human HCT116 cells assessed as increase in GSSG/GSH ratio at 500 uM in presence of NADPH after 48 hrs by Ellman's method; format: functional, cell-based

SMILES	Activity [1]	Activity [2]	Activity [3]	GI50 at 48 h [4] [µM]	GI50 [5] [µM]	RatioGI50 [6]	Activity [7]	Activity [8]	Activity [9]	Activity [10]
O=[N+]([O-])c1ccc(O)c([N+](=O)[O-])c1	Active									
O=c1[nH]cc(F)c(=O)[nH]1 [FLUOROURACIL]		inactive	inactive	10.3	5.47	1.88				
COc1cc(/C=C/C(=O)CC(=O)/C=C/c2ccc(O)c(OC)c2)ccc1O [CURCUMIN]		Active		58.6	3.5	16.7	Active	Active	Active	Active

From ChEMBL document CHEMBL4052771, “3,5-Bis(3-dimethylaminomethyl-4-hydroxybenzylidene)-4-piperidone and related compounds induce glutathione oxidation and mitochondria-mediated cell death in HCT-116 colon cancer cells” (Bioorg Med Chem Lett, 2017)
